How the values were obtained:
[1] = mn = molality of the nth substance listed, in mol/kg; conditions: 101 kPa, Liquid; for mass density: Vibrating tube method
[2] = molar heat capacity at constant pressure; mn = molality of the nth substance listed, in mol/kg; conditions: 298.15 K, 101 kPa, Liquid, Flow calorimetry

Cc1cn([C@H]2CC(O)[C@@H](CO)O2)c(=O)[nH]c1=O (stereo not given in full) [thymidine] + O
[1]
Conditions	mass density [kg/m3]	speed of sound [m/s]
288.15 K, m1 = 0.02897	1001.3	–
288.15 K, m1 = 0.04107	1002.22	–
288.15 K, m1 = 0.05418	1003.2	–
288.15 K, m1 = 0.06905	1004.3	–
288.15 K, m1 = 0.08071	1005.18	–
288.15 K, m1 = 0.0935	1006.13	–
288.15 K, m1 = 0.1077	1007.17	–
288.15 K, m1 = 0.122	1008.22	–
288.15 K, m1 = 0.1336	1009.07	–
298.15 K, m1 = 0.02049	998.571	1498.1
298.15 K, m1 = 0.03005	999.279	1498.8
298.15 K, m1 = 0.03798	999.866	1499.4
298.15 K, m1 = 0.04153	1000.13	1499.6
298.15 K, m1 = 0.04752	1000.57	1500
298.15 K, m1 = 0.05597	1001.19	1500.6
298.15 K, m1 = 0.06455	1001.82	1501.2
298.15 K, m1 = 0.0743	1002.53	1501.9
298.15 K, m1 = 0.08286	1003.15	1502.4
298.15 K, m1 = 0.09266	1003.86	1503.1
303.15 K, m1 = 0.02802	997.714	–
303.15 K, m1 = 0.03767	998.422	–
303.15 K, m1 = 0.04737	999.127	–
303.15 K, m1 = 0.05795	999.898	–
303.15 K, m1 = 0.06905	1000.7	–
303.15 K, m1 = 0.08175	1001.62	–
303.15 K, m1 = 0.09431	1002.52	–
303.15 K, m1 = 0.1077	1003.49	–
303.15 K, m1 = 0.1198	1004.35	–
313.15 K, m1 = 0.03767	994.944	–
313.15 K, m1 = 0.04737	995.64	–
313.15 K, m1 = 0.05795	996.397	–
313.15 K, m1 = 0.0689	997.176	–
313.15 K, m1 = 0.08175	998.094	–
313.15 K, m1 = 0.09431	998.979	–
313.15 K, m1 = 0.1079	999.926	–
313.15 K, m1 = 0.1198	1000.77	–

[2]
Conditions	molar heat capacity at constant pressure [J/K/mol]
m1 = 0.02897	450.9
m1 = 0.04107	449.7
m1 = 0.05418	447.6
m1 = 0.06918	452.8
m1 = 0.08071	452
m1 = 0.0935	452.9
m1 = 0.1078	453.3
m1 = 0.122	453.8
m1 = 0.1336	455.5
